Values of other authors as cited in patent US20100262098A1, “ABSORBENT ARTICLE WITH ODOUR CONTROL SUBSTANCE” (SCA Hygiene Products AB, priority 2007, published 2010).

Conditions: autoxidation at 100° C.; not treated with antioxidants

SMILES | Relative rate of oxidation
CCCCCCCCCCCCCCCCCC(=O)O [Stearic acid] | 0.6
CCCCCCCC/C=C\CCCCCCCC(=O)O [Oleic acid] | 6
CCCCC/C=C\C/C=C\CCCCCCCC(=O)O [Linoleic acid] | 64
